{
  "source": "paper PMC12406258",
  "about": "“Uncovering the Unusual Inhibition Mechanism of a Trypanosome Alternative Oxidase Inhibitor Displaying Broad-Spectrum Activity against African Animal Trypanosomes” (Journal of Medicinal Chemistry, 2025)",
  "key": {"[1]": {"target": "T1, recombinant TAO (ΔMTS rTAO) (Trypanosoma brucei brucei, UniProt Q26710)", "T1 construct": "[…]; SUMO (Small Ubiquitin-related Modifier) fusion from the expression system; made in house", "T1 sequence (Q26710 26-329, stated change not applied)": "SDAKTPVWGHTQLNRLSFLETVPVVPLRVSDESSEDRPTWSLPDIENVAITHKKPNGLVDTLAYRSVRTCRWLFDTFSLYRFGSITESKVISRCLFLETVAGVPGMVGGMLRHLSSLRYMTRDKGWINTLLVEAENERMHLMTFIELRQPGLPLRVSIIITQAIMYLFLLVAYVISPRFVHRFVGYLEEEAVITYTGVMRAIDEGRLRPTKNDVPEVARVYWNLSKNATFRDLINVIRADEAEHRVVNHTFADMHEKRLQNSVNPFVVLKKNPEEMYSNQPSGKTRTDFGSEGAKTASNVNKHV", "settings": "ref earlier reports; cited from earlier work"}, "[2]": {"target": "T1, recombinant TAO (ΔMTS rTAO)", "experiment": "Inhibition of ubiquinol oxidase activity of purified recombinant TAO", "format": "biochemical, T. brucei", "method": "This physiologically relevant rTAO enzyme was used throughout this work and in this experiment to study the inhibitory activity of 1.\nAs previously described, the Ubiquinol oxidase activity measurement was carried out using recombinant TAO lacking the mitochondrial targeting signal (ΔMTS). […] The reaction was carried out in a 1 cm cuvette for 2 min using a V-630 Jasco UV–vis spectrophotometer (Jasco Corporation, Tokyo, Japan). Briefly, the procedure involves preincubating 250 ng of the enzyme for 2 min in a 50 mM Tris-HCl (pH 7.3) buffer containing the detergent octaethylene glycol monododecylether (0.05% (w/v)) in a total reaction volume of 1 mL at 25 °C. […] For the inhibition reaction, 250 ng of the enzyme was preincubated with varying inhibitor concentrations for 2 min using the same buffer before the substrate was added. […] This was achieved using the same protocol but without TAO. […] The residual activities were plotted against the corresponding inhibitor concentration in a GraphPad Prism-9 software to obtain the IC50 value."}, "[3]": {"target": "T1, recombinant TAO (ΔMTS rTAO)", "settings": "ref reported earlier, cited from earlier work"}, "STIB900 mouse model": {"test_system": "STIB900 mouse model", "set-up": "method as in previous studies", "settings": "24 h after the last treatment, 4 × 10 mg/kg ip; ref previous studies; cited from earlier work"}, "[4]": {"set-up": "method as in previous studies", "settings": "ref previous studies, cited from earlier work"}, "T. equiperdum WT": {"test_system": "T. equiperdum WT", "experiment": "Resazurin-based drug sensitivity assay, T. equiperdum WT", "format": "cell-based", "settings": "Trypanosoma equiperdum", "method": "(§1) Other Trypanosoma species used in this study include T. evansi AntTat 3/3 (Wild-type); and T. equiperdum BoTat 1 (Bordeaux trypanozoon antigenic type 1) P (wild-type). All the trypanosomes were used only as bloodstream trypomastigotes and cultured in the standard Hirumi’s Modified Iscove’s medium #9 (HMI-9), supplemented with 10% heat-inactivated Fetal Bovine Serum (FBS), 14 μL/L β-mercaptoethanol, and 3.0 g sodium hydrogen carbonate per liter of medium (pH 7.4). Trypanosomes were cultured in vented flasks at 37 °C in a 5% CO2 atmosphere.\n(§2) Briefly, this protocol involves preparing a 96-well cell culture plate with a 100 μL serially diluted test compound (200 μM top concentration) in HMI-9 + 10% FBS (24 wells per control drug or test compound, with the 24th well serving as drug-free). This is followed by adjusting the cell density of mid-log-phase trypanosome cultures to the required concentration of 2 × 10^5 cells/mL (2 × 10^4 cells/well). […] All incubations were carried out at 37 °C with 5% CO2. […] EC50 values were calculated using GraphPad Prism 9.0 software via nonlinear regression with an equation for a sigmoidal dose–response curve with variable slope (GraphPad Software Inc., San Diego, CA, USA)."}, "T. brucei B48": {"test_system": "T. brucei B48", "experiment": "microbe, parasite or virus in culture", "format": "cell-based, T. b. brucei", "settings": "Trypanosoma brucei, read-out: T. brucei B48 EC50", "method": "as §1, §2"}, "T. evansi WT": {"test_system": "T. evansi WT", "experiment": "Resazurin-based drug sensitivity assay, T. evansi WT", "format": "cell-based", "method": "as §1, §2"}, "[5]": {"test_system": "T. b. brucei WT (s427) trypomastigotes", "experiment": "microbe, parasite or virus in culture", "format": "cell-based", "settings": "Trypanosoma brucei", "method": "as §1, §2"}, "T. congolense WT": {"test_system": "T. congolense WT", "experiment": "Drug sensitivity assay, T. congolense WT bloodstream forms", "format": "cell-based", "settings": "Trypanosoma congolense", "method": "The susceptibilities of trypanosomes to compound 1 were determined as previously described using the resazurin (Alamar Blue) assay. Briefly, this protocol involves preparing a 96-well cell culture plate with a 100 μL serially diluted test compound (200 μM top concentration) in HMI-9 + 10% FBS (24 wells per control drug or test compound, with the 24th well serving as drug-free). This is followed by adjusting the cell density of mid-log-phase trypanosome cultures to the required concentration of 2 × 10^5 cells/mL (2 × 10^4 cells/well). Then, 100 μL of the adjusted cell density/culture was added to all 24 wells in the plate, then incubating trypanosomes and test compound for 48 h followed by the addition of 20 μL filter-sterilized resazurin solution prepared by adding 25 mg resazurin sodium salt to 200 mL filter-sterilized PBS. This was followed by a further 24 h of incubation. All incubations were carried out at 37 °C with 5% CO2. […] Fluorescence was measured in the 96-well plates with a FLUOstar Optima (BMG Labtech, Durham, NC, USA) at wavelengths of 544 nm for excitation, 590 for emission, and a gain of 1250. EC50 values were calculated using GraphPad Prism 9.0 software via nonlinear regression with an equation for a sigmoidal dose–response curve with variable slope (GraphPad Software Inc., San Diego, CA, USA)."}, "T. brucei aqp1-3 null": {"test_system": "T. brucei aqp1-3 null", "experiment": "microbe, parasite or virus in culture", "format": "cell-based, T. b. brucei", "settings": "Trypanosoma brucei, read-out: aqp1-3 null EC50", "method": "as §1, §2"}, "T. b. brucei SUR10": {"test_system": "T. b. brucei SUR10", "experiment": "microbe, parasite or virus in culture", "format": "cell-based", "settings": "Trypanosoma brucei, read-out: SUR10 EC50"}, "[6]": {"settings": "read-out: IC50 against rTAO, activity against TAO reported earlier"}, "[7]": {"settings": "read-out: rTAO IC50 (supplementary csv, compounds 4, 6, 8-10, 12), IC50 (µM)"}},
  "note": "Where “and” joins values, the source holds several entries; their conditions need not be identical. Equal entries are not always repeated. Where two headings read alike, the source gives them in different places.",
  "data": [
    {"smiles": "C/C(=C\\Cc1c(O)c(Cl)c(C)c(C=O)c1O)CC/C=C(\\C)[C@@H]1CC(=O)C(C)(C)O1", "note": "[AF, Ascofuranone, reference compound]", "values": [
      {"measurement": "Type of inhibition of TAO", "setting": "[1]", "result": "competitive"}
    ]},
    {"smiles": "Cc1cc(O)cc(O)c1C(=O)OCCCCCCCCCCCCCC[P+](c1ccccc1)(c1ccccc1)c1ccccn1", "note": "[Compound 2, {14-[(2,4-Dihydroxy-6-methylbenzoyl)-oxy]-tetradecyl}-diphenyl(pyridin-2-yl)-Phosphonium Bromide]", "values": [
      {"measurement": "IC50", "setting": "[2]", "result": 1.6, "unit": "µM"}
    ]},
    {"smiles": "Cc1cc(O)ccc1C(=O)CCCCCCCCCCCCCCC[P+](c1ccccc1)(c1ccccc1)c1ccccn1.[Br-]", "note": "[Compound 3]", "values": [
      {"measurement": "IC50", "setting": "[2]", "result": "> 5", "unit": "µM"},
      {"measurement": "Inhibition of TAO at the highest concentration tested", "setting": "[2]; 5 μM", "result": "did not inhibit"}
    ]},
    {"smiles": "Cc1cc(O)ccc1C(=O)OCCCCCCCCCCCCCC[P+](c1ccccc1)(c1ccccc1)c1ccccc1", "note": "[Compound 4]", "values": [
      {"measurement": "IC50", "setting": "[3]; [6]", "result": "0.081 µM and ~0.08 µM"}
    ]},
    {"smiles": "Cc1cc(O)ccc1C(=O)OCCCCCCCCCCCCCC[n+]1cccc2ccccc21.[Br-]", "note": "[Compound 6]", "values": [
      {"measurement": "IC50", "setting": "[3]; [7]", "result": "0.03 ± 0.005", "unit": "µM"},
      {"measurement": "Type of inhibition of TAO", "setting": "[1]", "result": "competitive"}
    ]},
    {"smiles": "Cc1c(Cl)c(O)c(Cl)c(O)c1C(=O)OCCCCCCCCCCCCCC[P+](c1ccccc1)(c1ccccc1)c1ccccc1", "note": "[Compound 7, {14-[(3,5-Dichloro-2,4-dihydroxy-6-methylbenzoyl)-oxy]-tetradecyl}-Triphenylphosphonium Bromide]", "values": [
      {"measurement": "IC50", "setting": "[2]", "result": 0.16, "unit": "µM"}
    ]},
    {"smiles": "Cc1cc(O)cc(O)c1C(=O)OCCCCCCCCCCCCCC[P+](c1ccccc1)(c1ccccc1)c1ccccc1.[Br-]", "note": "[Compound 8]", "values": [
      {"measurement": "IC50", "setting": "[3]; [6]", "result": "~0.08 µM and 0.088 µM"},
      {"measurement": "Reduction of parasitemia", "setting": "STIB900 mouse model", "result": 95, "unit": "%"},
      {"measurement": "Half-life (phase 2 metabolism)", "setting": "[4]; S9 fraction and cofactor UDPGA", "result": "approximately 2 h"},
      {"measurement": "Type of inhibition of TAO", "setting": "[1]", "result": "competitive"}
    ]},
    {"smiles": "Cc1cc(O)cc(O)c1C(=O)OCCCCCCCCCCCCCC[n+]1cccc2ccccc21.[Br-]", "note": "[Compound 9]", "values": [
      {"measurement": "IC50", "setting": "[3]; [7]", "result": "0.104 ± 0.011", "unit": "µM"},
      {"measurement": "Reduction of parasitemia", "setting": "STIB900 mouse model", "result": 95, "unit": "%"},
      {"measurement": "Phase 2 metabolism", "setting": "[4]", "result": "lack of phase 2 metabolism"}
    ]},
    {"smiles": "Cc1cc[n+](CCCCCCCCCCCCCCOC(=O)c2c(C)cc(O)cc2O)cc1", "note": "[Compound 10]", "values": [
      {"measurement": "IC50", "setting": "[3]; [7]", "result": "> 5", "unit": "µM"}
    ]},
    {"smiles": "N=C(N)c1ccc(/N=N/Nc2ccc(C(=N)N)cc2)cc1", "note": "[Dim., Diminazene aceturate]", "values": [
      {"measurement": "EC50", "setting": "T. equiperdum WT", "result": "0.0332 ± 0.01", "unit": "µM"},
      {"measurement": "EC50", "setting": "T. brucei B48", "result": "1.22 ± 0.02", "unit": "µM"},
      {"measurement": "EC50", "setting": "T. evansi WT", "result": "0.0514 ± 0.012", "unit": "µM"},
      {"measurement": "EC50", "setting": "[5]; read-out: T. b. brucei WT (+5 mM glycerol) EC50", "result": "0.081 ± 0.013", "unit": "µM"},
      {"measurement": "EC50", "setting": "[5]; read-out: T. b. brucei WT (no glycerol) EC50", "result": "0.065 ± 0.021", "unit": "µM"},
      {"measurement": "EC50", "setting": "T. congolense WT", "result": "0.252 ± 0.018", "unit": "µM"}
    ]},
    {"smiles": "N=C(N)c1ccc(OCCCCCOc2ccc(C(=N)N)cc2)cc1", "note": "[Pent., Pentamidine isethionate]", "values": [
      {"measurement": "EC50", "setting": "T. equiperdum WT", "result": "0.0081 ± 0.0011", "unit": "µM"},
      {"measurement": "EC50", "setting": "T. brucei B48", "result": "1.02 ± 0.2", "unit": "µM"},
      {"measurement": "EC50", "setting": "T. brucei aqp1-3 null", "result": "0.0514 ± 0.0118", "unit": "µM"},
      {"measurement": "EC50", "setting": "T. evansi WT", "result": "0.0051 ± 0.0021", "unit": "µM"},
      {"measurement": "EC50", "setting": "[5]; read-out: T. b. brucei WT (+5 mM glycerol) EC50, incubated in the presence of 5 mM glycerol", "result": "0.0062 ± 0.0017", "unit": "µM"},
      {"measurement": "EC50", "setting": "[5]; s427, no glycerol, n ≥ 4, read-out: T. b. brucei WT (no glycerol) EC50", "result": "0.0042 ± 0.0008", "unit": "µM"}
    ]},
    {"smiles": "O=C(NO)c1ccccc1O", "note": "[SHAM, Salicylhydroxamic acid]", "values": [
      {"measurement": "EC50", "setting": "T. brucei aqp1-3 null", "result": "6.88 ± 0.11", "unit": "µM"}
    ]},
    {"smiles": "Cc1ccc(C(=O)Nc2ccc(S(=O)(=O)O)c3cc(S(=O)(=O)O)cc(S(=O)(=O)O)c23)cc1NC(=O)c1cccc(NC(=O)Nc2cccc(C(=O)Nc3cc(C(=O)Nc4ccc(S(=O)(=O)O)c5cc(S(=O)(=O)O)cc(S(=O)(=O)O)c45)ccc3C)c2)c1", "note": "[Suramin, reference compound]", "values": [
      {"measurement": "EC50", "setting": "T. b. brucei SUR10", "result": "0.19 ± 0.02", "unit": "µM"}
    ]}
  ]
}
